Experimental data reported in patent publication US20230117034A1, “PYRAZOLOTRIAZINES” (Bayer Aktiengesellschaft, priority 2019, published 2023).

Columns and labels:
[1] = test system: CAL-120, human breast adenocarcinoma cells; experiment: Proliferation assay CAL-120 (crystal violet, 4 days); type: cell-based; conditions: Homo sapiens, CAL-120, 96 h, CAL-120 cells, median, read-out: Prolif-CAL-120, IC50-[mol/l] (median)
Procedure, shortened: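 IC50 from a 4-parameter fit of crystal violet absorbance (595 nm), scaled between a day-0 plate (0%) and untreated wells (100%). Cells grown in 10% FCS medium were exposed to test substances at 0.01-10 µmol/L for 4 days, 0.1% DMSO final.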

CDK2/CycE = biological target: T1, CDK2/CycE (Homo sapiens, UniProt P24941); experiment: CDK2/CycE kinase assay (TR-FRET, 2 mM ATP); type: biochemical; conditions: 2 mM ATP (high ATP); median; read-out: CDK2/CyclinE, 2 mM ATP (high ATP), IC50 (median)
T1 construct: purchased ProQinase GmbH (Freiburg, Germany); host or cells: insect cells (Sf9)
Procedure, shortened: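 Biotin-peptide phosphorylation (0.75 µM substrate, 2 mM ATP final, 25 min, 22 °C) by Sf9-expressed GST-CDK2/GST-CycE, after a 15-min compound pre-binding step. Inhibition scaled between enzyme-free (100%) and uninhibited (0%) wells.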

[2] = biological target: T2, CYCLIN K (nuclear staining in CAL-120 cells) (Homo sapiens, UniProt O75909); experiment: CYCLIN K nuclear protein level: immunofluorescence high content analysis (CAL-120); type: cell-based; conditions: 24 h, 50% reduction of nuclear CCNK staining intensity, median, read-out: CYCLIN K degradation IF, DC50-[mol/l] (median)
T2 construct: endogenous in cells; host or cells: CAL-120 human breast cancer cells (DSMZ ACC 459)
T2 sequence (O75909 whole entry): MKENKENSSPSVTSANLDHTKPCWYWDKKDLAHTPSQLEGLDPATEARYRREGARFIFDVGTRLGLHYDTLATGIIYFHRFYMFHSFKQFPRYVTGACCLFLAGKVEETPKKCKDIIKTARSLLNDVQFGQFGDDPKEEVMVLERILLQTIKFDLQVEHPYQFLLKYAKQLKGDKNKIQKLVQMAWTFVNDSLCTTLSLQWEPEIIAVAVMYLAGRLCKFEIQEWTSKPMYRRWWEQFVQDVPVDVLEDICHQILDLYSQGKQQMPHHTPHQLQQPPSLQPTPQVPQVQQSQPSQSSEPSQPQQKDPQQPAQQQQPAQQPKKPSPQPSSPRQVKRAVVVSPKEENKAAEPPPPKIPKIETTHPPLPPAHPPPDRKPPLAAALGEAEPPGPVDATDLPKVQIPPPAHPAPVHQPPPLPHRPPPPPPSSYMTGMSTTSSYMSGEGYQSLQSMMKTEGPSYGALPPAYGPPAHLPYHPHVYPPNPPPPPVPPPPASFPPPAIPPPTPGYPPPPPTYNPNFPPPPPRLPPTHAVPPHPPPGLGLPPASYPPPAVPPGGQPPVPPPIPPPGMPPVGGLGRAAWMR
T2 sequence (Q9NYV4 whole entry partner): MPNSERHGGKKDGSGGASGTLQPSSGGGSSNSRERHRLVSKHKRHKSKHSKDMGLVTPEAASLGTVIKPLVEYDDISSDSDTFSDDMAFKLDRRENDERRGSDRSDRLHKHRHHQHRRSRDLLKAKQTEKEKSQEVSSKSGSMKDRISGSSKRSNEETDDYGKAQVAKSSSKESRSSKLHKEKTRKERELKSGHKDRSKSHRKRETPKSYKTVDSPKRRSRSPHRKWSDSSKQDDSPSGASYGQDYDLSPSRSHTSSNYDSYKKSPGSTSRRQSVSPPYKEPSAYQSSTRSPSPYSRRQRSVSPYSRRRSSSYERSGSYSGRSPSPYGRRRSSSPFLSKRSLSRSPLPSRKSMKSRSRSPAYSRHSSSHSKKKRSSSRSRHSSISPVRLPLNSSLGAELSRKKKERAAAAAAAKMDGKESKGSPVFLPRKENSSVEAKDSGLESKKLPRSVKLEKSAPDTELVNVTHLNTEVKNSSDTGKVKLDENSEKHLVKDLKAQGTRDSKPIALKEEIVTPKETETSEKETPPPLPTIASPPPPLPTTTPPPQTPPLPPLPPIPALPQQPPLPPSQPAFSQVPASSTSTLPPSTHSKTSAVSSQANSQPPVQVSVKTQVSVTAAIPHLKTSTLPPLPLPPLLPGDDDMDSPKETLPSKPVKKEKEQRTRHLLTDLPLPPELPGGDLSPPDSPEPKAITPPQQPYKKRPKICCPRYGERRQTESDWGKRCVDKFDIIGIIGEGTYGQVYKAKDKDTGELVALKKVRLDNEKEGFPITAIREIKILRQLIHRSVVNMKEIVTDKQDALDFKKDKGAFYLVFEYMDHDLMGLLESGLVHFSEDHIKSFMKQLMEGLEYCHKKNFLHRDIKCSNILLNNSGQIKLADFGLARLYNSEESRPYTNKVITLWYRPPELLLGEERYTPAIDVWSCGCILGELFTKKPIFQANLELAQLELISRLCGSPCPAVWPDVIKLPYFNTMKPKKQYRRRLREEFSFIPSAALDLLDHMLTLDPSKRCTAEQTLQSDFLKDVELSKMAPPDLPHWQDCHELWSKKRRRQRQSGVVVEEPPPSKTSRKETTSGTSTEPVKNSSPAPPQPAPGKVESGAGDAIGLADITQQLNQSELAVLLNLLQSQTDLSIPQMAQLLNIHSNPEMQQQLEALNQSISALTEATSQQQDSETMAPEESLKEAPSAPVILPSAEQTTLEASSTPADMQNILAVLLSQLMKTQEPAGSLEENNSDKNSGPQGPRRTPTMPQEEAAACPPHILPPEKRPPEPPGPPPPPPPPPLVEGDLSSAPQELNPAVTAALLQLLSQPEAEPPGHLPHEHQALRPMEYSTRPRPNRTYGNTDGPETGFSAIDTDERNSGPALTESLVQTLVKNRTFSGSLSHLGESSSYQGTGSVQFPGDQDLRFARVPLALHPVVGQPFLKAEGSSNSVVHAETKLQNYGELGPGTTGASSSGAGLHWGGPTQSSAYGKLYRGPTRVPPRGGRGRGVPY
Procedure, shortened: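 Readout is automated confocal image analysis of nuclear cyclin K immunofluorescence (Hoechst nuclei) after PFA fixation. Cells were CAL-120, exposed to compound dose-response 24 h at 37 °C; values are DC50 for halving nuclear CCNK signal relative to DMSO and control wells.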

| SMILES | IC50 [1] [nM] | IC50 (CDK2/CycE) [nM] | DC50 [2] [nM] |
| --- | --- | --- | --- |
| Fc1ccc(-c2cnc(CNc3nc(N4CCOCC4)nc4c(Br)cnn34)[nH]2)cc1 [Example 66, 8-bromo-N-{[5-(4-fluorophenyl)-1H-imidazol-2-yl]methyl}-2-(morpholin-4-yl)pyrazolo[1,5-a][1,3,5]triazin-4-amine] | 230 | 2300 | 2.45 |
| Brc1cnn2c(NCc3nnc(-c4ccccc4)[nH]3)nc(N3CCCC3)nc12 [Example 64, 8-bromo-N-[(5-phenyl-4H-1,2,4-triazol-3-yl)methyl]-2-(pyrrolidin-1-yl)pyrazolo[1,5-a][1,3,5]triazin-4-amine] | 36.1 | 4660 | 4.89 |
| CCc1cnn2c(NCc3nc4c(F)c(F)ccc4[nH]3)nc(N3CCN(C)CC3)nc12.O=CO [Example 435, formic acid N-[(4,5-difluoro-1H-benzimidazol-2-yl)methyl]-8-ethyl-2-(4-methylpiperazin-1-yl)pyrazolo[1,5-a][1,3,5]triazin-4-amine] | 1.76 | 5000 | 0.274 |
| Brc1cnn2c(NCc3nnc(-c4ccccc4)[nH]3)nc(N3CC4(COC4)C3)nc12 [Example 65, 8-bromo-2-(2-oxa-6-azaspiro[3.3]heptan-6-yl)-N-[(5-phenyl-4H-1,2,4-triazol-3-yl)methyl]pyrazolo[1,5-a][1,3,5]triazin-4-amine] | 10 | > 20000 | 16.4 |
| COC1CCN(c2nc(NCc3nnc(-c4ccccc4)[nH]3)n3ncc(Br)c3n2)CC1 [Example 76, 8-bromo-2-(4-methoxypiperidin-1-yl)-N-[(5-phenyl-4H-1,2,4-triazol-3-yl)methyl]pyrazolo[1,5-a][1,3,5]triazin-4-amine] | 110 | 8340 | 8.06 |
| OC[C@H]1CCCCN1c1nc(NCc2nnc(-c3ccccc3)[nH]2)n2ncc(Br)c2n1 [Example 71, [(2R)-1-(8-bromo-4-{[(5-phenyl-4H-1,2,4-triazol-3-yl)methyl]amino}pyrazolo[1,5-a][1,3,5]triazin-2-yl)piperidin-2-yl]methanol] | 32 | 2230 | 2.77 |
| FC(F)(F)Oc1cccc(-c2cnc(CNc3nc(N4CCOCC4)nc4c(Br)cnn34)[nH]2)c1 [Example 82, 8-bromo-2-(morpholin-4-yl)-N-({5-[3-(trifluoromethoxy)phenyl]-1H-imidazol-2-yl}methyl)pyrazolo[1,5-a][1,3,5]triazin-4-amine] | 85.2 | 11600 | 14.2 |
| COC(=O)C1CCN(c2nc(NCc3nnc(-c4ccccc4)[nH]3)n3ncc(Br)c3n2)CC1 [Example 77, methyl 1-(8-bromo-4-{[(5-phenyl-4H-1,2,4-triazol-3-yl)methyl]amino}pyrazolo[1,5-a][1,3,5]triazin-2-yl)piperidine-4-carboxylate] | 338 | 11100 |  |
| COc1cccc(-c2cnc(CNc3nc(N4CCOCC4)nc4c(Br)cnn34)[nH]2)c1 [Example 80, 8-bromo-N-{[5-(3-methoxyphenyl)-1H-imidazol-2-yl]methyl}-2-(morpholin-4-yl)pyrazolo[1,5-a][1,3,5]triazin-4-amine] | 14.2 | 4040 | 1.34 |
| c1ccc(-c2nnc(CNc3nc(N4CCOCC4)nc4c(C5CC5)cnn34)[nH]2)cc1 [Example 93, 8-cyclopropyl-2-(morpholin-4-yl)-N-[(5-phenyl-4H-1,2,4-triazol-3-yl)methyl]pyrazolo[1,5-a][1,3,5]triazin-4-amine] | 100 | 10500 | 17.3 |
| Cc1ccccc1-c1cnc(CNc2nc(N3CCOCC3)nc3c(Br)cnn23)[nH]1 [Example 85, 8-bromo-N-{[5-(2-methylphenyl)-1H-imidazol-2-yl]methyl}-2-(morpholin-4-yl)pyrazolo[1,5-a][1,3,5]triazin-4-amine] | 26.3 | 4520 | 1.2 |
| COc1ccccc1-c1cnc(CNc2nc(N3CCOCC3)nc3c(Br)cnn23)[nH]1 [Example 87, 8-bromo-N-{[5-(2-methoxyphenyl)-1H-imidazol-2-yl]methyl}-2-(morpholin-4-yl)pyrazolo[1,5-a][1,3,5]triazin-4-amine] | 6.58 | 2550 | 0.667 |
| C[C@@H]1CN(c2nc(NCc3nc4ccccc4[nH]3)n3ncc(Br)c3n2)C[C@H](C)O1 [Example 73, N-[(1H-benzimidazol-2-yl)methyl]-8-bromo-2-[(2R,6S)-2,6-dimethylmorpholin-4-yl]pyrazolo[1,5-a][1,3,5]triazin-4-amine] | 23 | 6090 | 0.735 |
| OC[C@@H]1CCCCN1c1nc(NCc2nnc(-c3ccccc3)[nH]2)n2ncc(Br)c2n1 [Example 70, [(2S)-1-(8-bromo-4-{[(5-phenyl-4H-1,2,4-triazol-3-yl)methyl]amino}pyrazolo[1,5-a][1,3,5]triazin-2-yl)piperidin-2-yl]methanol] | 49 | 1540 | 11.7 |
| OCC1COCCN1c1nc(NCc2nc3ccccc3[nH]2)n2ncc(Br)c2n1 (centres unmarked) [Example 67, (4-{4-[(1H-benzimidazol-2-ylmethyl)amino]-8-bromopyrazolo[1,5-a][1,3,5]triazin-2-yl}morpholin-3-yl)methanol] | 20.8 | 1860 | 0.814 |
| CN1CCN(c2nc(NCc3nc4cc(C(F)(F)F)ccc4[nH]3)n3ncc(C4CC4)c3n2)CC1 [Example 313, 8-cyclopropyl-2-(4-methylpiperazin-1-yl)-N-{[5-(trifluoromethyl)-1H-benzimidazol-2-yl]methyl}pyrazolo[1,5-a][1,3,5]triazin-4-amine] | 9.52 | > 20000 | 1.57 |
| C[C@@H]1CN(c2nc(NCc3nnc(-c4ccccc4)[nH]3)n3ncc(Br)c3n2)C[C@H](C)O1 [Example 78, 8-bromo-2-[(2R,6S)-2,6-dimethylmorpholin-4-yl]-N-[(5-phenyl-4H-1,2,4-triazol-3-yl)methyl]pyrazolo[1,5-a][1,3,5]triazin-4-amine] | 25.7 | 4280 | 1.61 |
| FC(F)(F)c1ccccc1-c1cnc(CNc2nc(N3CCOCC3)nc3c(Br)cnn23)[nH]1 [Example 88, 8-bromo-2-(morpholin-4-yl)-N-({5-[2-(trifluoromethyl)phenyl]-1H-imidazol-2-yl}methyl)pyrazolo[1,5-a][1,3,5]triazin-4-amine] | 14.2 | 8550 | 1.16 |
| CC(C)c1cnn2c(NCc3nc4ccccc4[nH]3)nc(N3CCOCC3)nc12 [Example 1, N-[(1H-benzimidazol-2-yl)methyl]-2-(morpholin-4-yl)-8-(propan-2-yl)pyrazolo[1,5-a][1,3,5]triazin-4-amine] |  | 5270 | 11.1 |
| CC(C)c1cnn2c(NCc3nc4ccccc4[nH]3)nc(N3CCOC(C)(C)C3)nc12 [Example 12, N-[(1H-benzimidazol-2-yl)methyl]-2-(2,2-dimethylmorpholin-4-yl)-8-(propan-2-yl)pyrazolo[1,5-a][1,3,5]triazin-4-amine] |  | > 16500 |  |
| Clc1ccccc1-c1nnc(CNc2nc(N3CCOCC3)nc3c(Br)cnn23)[nH]1 [Example 69, 8-bromo-N-{[5-(2-chlorophenyl)-4H-1,2,4-triazol-3-yl]methyl}-2-(morpholin-4-yl)pyrazolo[1,5-a][1,3,5]triazin-4-amine] | 333 | 12100 |  |
| O[C@@H]1CCN(c2nc(NCc3nc4ccccc4[nH]3)n3ncc(Br)c3n2)C1 [Example 202, (3R)-1-(4-{[(1H-benzimidazol-2-yl)methyl]amino}-8-bromopyrazolo[1,5-a][1,3,5]triazin-2-yl)pyrrolidin-3-ol] | 131 | 10500 |  |
| Fc1ccc2[nH]c(CNc3nc(N4CCOCC4)nc4c(-c5cnn(C(F)F)c5)cnn34)nc2c1F [Example 422, N-[(4,5-difluoro-1H-benzimidazol-2-yl)methyl]-8-[1-(difluoromethyl)-1H-pyrazol-4-yl]-2-(morpholin-4-yl)pyrazolo[1,5-a][1,3,5]triazin-4-amine] | 6.88 | > 20000 |  |
| FC(F)(F)Oc1ccccc1-c1nnc(CNc2nc(N3CCOCC3)nc3c(Br)cnn23)[nH]1 [Example 74, 8-bromo-2-(morpholin-4-yl)-N-({5-[2-(trifluoromethoxy)phenyl]-4H-1,2,4-triazol-3-yl}methyl)pyrazolo[1,5-a][1,3,5]triazin-4-amine] | 311 | 18200 |  |
| CC(C)c1cnn2c(NCc3nc4ccccc4[nH]3)nc(N(C)C)nc12 [Example 3, N^4-[(1H-benzimidazol-2-yl)methyl]-N^2,N^2-dimethyl-8-(propan-2-yl)pyrazolo[1,5-a][1,3,5]triazine-2,4-diamine] |  | > 20000 |  |
